Where two headings read alike, the source gives them in different places.
Key:
Assay type in all cases: in vitro ADME
[1] = molecular target: T1, CYP1A2 (Homo sapiens, UniProt P05177); assay: Direct and time-dependent CYP1A2 inhibition in pooled human liver microsomes; settings: pooled HLM, substrate Phenacetin 50 μM
T1 construct: evaluated in pooled human liver microsomes (HLM); from tissue; host or cells: pooled human liver microsomes
Protocol: The induction potential of Compound A on CYP enzymes was assessed in cryopreserved human hepatocytes from three donors. Following treatment for with Compound A at concentrations of 0.03-30 μM for 48 hours, mRNA levels for CYP1A2, 2B6, 2C8, 2C9, 2C19, and 3A4 were determined by semiquantitative real-time polymerase chain reaction (PCR). Test article concentrations during 24-hour incubation were determined. The potential of Compound A to cause direct and time-dependent inhibition (TDI) of the activities of CYP1A2, 2B6, 2C8, 2C9, 2C19, 2D6, and 3A4 was evaluated in pooled human liver microsomes (HLM) at 0.2-15 μM. Probe substrate concentrations around Km were used for direction inhibition and initial TDI assays. For TDI assay, Compound A was pre-incubated with pooled HLM with and without NADPH for 30 minutes prior to incubation with a single concentration of probe substrate.

[2] = Metabolite profiling / stability in human plasma
Protocol: (§1) Metabolite profiling was conducted in incubations of Compound A (2 and 10 μM) with HLM (up to 60 min), human hepatocyte suspension (up to 240 min) and human plasma (up to 360 min). In addition, Compound A (2 μM) was incubated with recombinant human CYP enzymes CYP1A2, CYP2A6, CYP2B6, CYP2C8, CYP2C9, CYP2C19, CYP2D6, CYP2E1, CYP3A4 and CYP3A5.

[3] = system: major recombinant CYPs; assay: Incubation with recombinant human CYP enzymes; settings: up to 25 min
Protocol: as §1
The DDI potential of Compound A as a victim via CYP mediated pathways was examined in HLM, human hepatocyte suspensions, and human recombinant CYP enzymes.

[4] = Metabolite profiling using human plasma, HLM and human hepatocytes; settings: human plasma
Protocol: as §1

[5] = molecular target: T2, OCT2 (Homo sapiens, UniProt O15244); assay: OCT2 uptake transporter inhibition in MDCKII or HEK293 cells; settings: substrate Metformin (10 μM)
T2 construct: expressed in transfected cells; host or cells: MDCKII or HEK293
T2 sequence (O15244 whole entry): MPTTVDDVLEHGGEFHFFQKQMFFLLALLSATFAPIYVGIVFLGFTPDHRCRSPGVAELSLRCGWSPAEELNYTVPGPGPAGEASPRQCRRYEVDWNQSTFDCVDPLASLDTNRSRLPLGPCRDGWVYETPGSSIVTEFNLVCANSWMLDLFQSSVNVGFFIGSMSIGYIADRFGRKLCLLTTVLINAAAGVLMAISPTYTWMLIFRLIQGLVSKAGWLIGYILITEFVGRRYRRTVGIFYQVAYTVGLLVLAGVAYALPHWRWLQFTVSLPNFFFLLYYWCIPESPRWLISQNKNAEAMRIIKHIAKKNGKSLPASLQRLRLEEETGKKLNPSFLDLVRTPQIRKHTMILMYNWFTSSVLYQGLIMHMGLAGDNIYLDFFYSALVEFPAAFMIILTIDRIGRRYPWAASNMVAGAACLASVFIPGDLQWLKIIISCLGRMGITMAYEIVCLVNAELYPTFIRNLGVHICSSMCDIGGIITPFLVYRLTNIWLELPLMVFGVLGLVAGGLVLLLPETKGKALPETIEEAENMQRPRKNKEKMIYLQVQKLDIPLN
Protocol: (§2) In addition, the inhibition potential against efflux transporters (P-glycoprotein (Pgp) and breast cancer resistance protein (BCRP)) and uptake transporters (MATE1, MATE2-K, OATP1B1, OATP1B3, OAT1, OAT3, and OCT2) was assessed using single transporter over-expressed cell monolayers (MDCK II or HEK293) or inside-out vesicles.
(§3) The potential of Compound A to inhibit Pgp or BCRP was tested for bidirectional transport of the probe substrates in Pgp or BCRP-expressed MDCKII and control monolayers at Compound A concentrations of 0.07-5 μM. Pgp and BCR inhibition were tested in inside-out membrane vesicles prepared from HEK293 overexpressing human Pgp and BCR at concentrations of 0.01-9 μM Compound A in the presence of 4 mM MgATP or MgAMP.

[6] = molecular target: T3, BCRP (Homo sapiens, UniProt Q9UNQ0); assay: BCRP inhibition, bidirectional transport in BCRP-expressed MDCKII monolayers; set-up: expressed in transfected cells; host or cells: MDCKII
T3 sequence (Q9UNQ0 1-655): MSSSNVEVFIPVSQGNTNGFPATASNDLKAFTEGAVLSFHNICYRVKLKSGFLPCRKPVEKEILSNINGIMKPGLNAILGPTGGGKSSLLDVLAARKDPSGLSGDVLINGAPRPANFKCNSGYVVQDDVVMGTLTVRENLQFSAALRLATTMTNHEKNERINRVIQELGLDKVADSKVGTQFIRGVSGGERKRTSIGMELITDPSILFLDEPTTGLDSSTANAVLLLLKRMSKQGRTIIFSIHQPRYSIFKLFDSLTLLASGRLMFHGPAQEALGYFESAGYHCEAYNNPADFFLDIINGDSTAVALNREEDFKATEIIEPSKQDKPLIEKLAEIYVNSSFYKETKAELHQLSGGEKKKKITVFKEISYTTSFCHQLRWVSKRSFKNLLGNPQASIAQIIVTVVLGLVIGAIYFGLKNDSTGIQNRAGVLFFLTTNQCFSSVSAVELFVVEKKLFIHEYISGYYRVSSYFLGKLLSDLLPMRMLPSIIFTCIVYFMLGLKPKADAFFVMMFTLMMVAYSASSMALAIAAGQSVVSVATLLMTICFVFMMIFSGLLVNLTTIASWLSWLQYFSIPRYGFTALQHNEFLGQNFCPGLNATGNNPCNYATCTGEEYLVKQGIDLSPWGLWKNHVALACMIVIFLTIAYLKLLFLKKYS
Protocol: as §2, §3

[7] = molecular target: T4, OATP1B3 (Homo sapiens, UniProt Q9NPD5); assay: OATP1B3 uptake transporter inhibition in MDCKII or HEK293 cells; set-up: expressed in transfected cells; host or cells: MDCKII or HEK293; settings: substrate Rosuvastatin (1 μM)
T4 sequence (Q9NPD5 1-702): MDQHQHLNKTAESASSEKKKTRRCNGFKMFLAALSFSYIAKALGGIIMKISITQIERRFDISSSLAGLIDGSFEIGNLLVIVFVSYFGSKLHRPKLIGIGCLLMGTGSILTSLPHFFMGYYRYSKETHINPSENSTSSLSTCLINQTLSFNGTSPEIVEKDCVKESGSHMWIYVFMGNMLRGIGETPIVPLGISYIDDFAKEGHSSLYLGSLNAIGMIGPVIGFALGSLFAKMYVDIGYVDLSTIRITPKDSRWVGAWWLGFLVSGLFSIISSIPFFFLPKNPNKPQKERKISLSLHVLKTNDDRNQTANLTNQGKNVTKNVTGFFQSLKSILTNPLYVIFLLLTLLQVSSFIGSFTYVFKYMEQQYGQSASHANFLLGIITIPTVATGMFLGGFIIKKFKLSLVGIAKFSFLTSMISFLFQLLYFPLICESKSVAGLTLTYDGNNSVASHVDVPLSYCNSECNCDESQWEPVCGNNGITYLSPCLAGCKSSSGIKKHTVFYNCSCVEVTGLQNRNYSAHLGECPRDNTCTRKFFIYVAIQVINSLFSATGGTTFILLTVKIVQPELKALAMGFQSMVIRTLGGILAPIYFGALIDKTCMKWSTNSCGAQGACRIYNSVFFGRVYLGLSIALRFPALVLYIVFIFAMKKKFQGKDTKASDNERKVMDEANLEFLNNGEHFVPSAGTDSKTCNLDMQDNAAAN
Protocol: as §2, §3

T1 sequence (P05177 whole entry): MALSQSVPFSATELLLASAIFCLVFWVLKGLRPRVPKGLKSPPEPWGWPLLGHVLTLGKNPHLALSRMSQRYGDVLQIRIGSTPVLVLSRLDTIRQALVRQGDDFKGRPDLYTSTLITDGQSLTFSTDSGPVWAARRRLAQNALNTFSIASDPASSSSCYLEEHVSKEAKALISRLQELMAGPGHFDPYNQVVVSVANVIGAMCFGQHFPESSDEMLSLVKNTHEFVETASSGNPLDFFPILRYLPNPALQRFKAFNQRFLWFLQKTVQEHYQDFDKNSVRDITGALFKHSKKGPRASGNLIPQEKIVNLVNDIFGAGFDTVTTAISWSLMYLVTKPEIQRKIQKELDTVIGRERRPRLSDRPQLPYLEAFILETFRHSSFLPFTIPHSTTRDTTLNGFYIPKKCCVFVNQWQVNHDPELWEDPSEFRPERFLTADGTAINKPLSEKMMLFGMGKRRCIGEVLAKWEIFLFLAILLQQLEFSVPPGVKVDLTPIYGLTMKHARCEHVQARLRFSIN

IC50 ([1]; read-out: IC50, 30 min Pre-incubation): > 15 µM
IC50 ([1]; read-out: IC50, No Pre-incubation): > 15 µM
% Parent at 0 Min, HP at 360 min [2]: 77.0%
Stability in major recombinant CYPs [3]: relatively stable
Major metabolic pathway [4]: hydrolysis (M825/1)
IC50 [5]: > 3.75 µM
inhibition at 1 µM ([6]; BCRP-expressed MDCKII cell monolayers, probe Prazosin (1 μM), Monolayers, substrate Prazosin (1 μM), read-out: Maximal % Inhibition): 54%
IC50 ([6]; monolayer assays): 1.55 µM
IC50 [7]: > 3.75 µM
SMILES: COc1cc(O[C@H]2C(C)(C)[C@H](NC(=O)c3ccc(N4CCC(CN5CCN(c6ccc(C(=O)N[C@H]7CCC(=O)NC7=O)c(F)c6)CC5)CC4)cc3)C2(C)C)ccc1C#N [Compound A, 4-(4-((1-(4-(((1R,3R)-3-(4-cyano-3-methoxyphenoxy)-2,2,4,4-tetramethylcyclobutyl)carbamoyl)phenyl)piperidin-4-yl)methyl)piperazin-1-yl)-N—((S)-2,6-dioxopiperidin-3-yl)-2-fluorobenzamide]

Reference: patent US20250009737A1, “COMPOUNDS AND METHODS FOR THE TARGETED DEGRADATION OF ANDROGEN RECEPTOR” (Arvinas Operations, Inc., priority 2023, published 2025)
